Measured values published in US9862716B2, “TRKA kinase inhibitors, compositions and methods thereof” (Merck Sharp & Dohme Corp., priority 2014, dated 2018).

Biological target: T1, human TrkA receptor (Homo sapiens, UniProt P04629)
T1 construct: host or cells: U2OS cells (PathHunter cell line)
Assay: DiscoverX PathHunter TrkA functional assay (NGF-stimulated U2OS cells)
Type: cell-based
Conditions: U2OS cells expressing human TrkA-PK, Shc1-EA and p75NTR; compound 1 h, then NGF at ~80% of maximal response for 3 h; luminescence
Procedure: TrkA functional activity was measured using a DiscoverX PathHunter assay. In this assay, U2OS cells express the human TrkA receptor as a fusion with the weakly complementing fragment of B-galactosidase, which DiscoverX calls “Prolink (PK)”; additionally, Shc1 is fused with a larger fragment, which is called “Enzyme Acceptor (EA)”. Activation of the TrkA receptor, upon NGF addition, results in the kinase domain being phosphorylated, resulting in subsequent recruitment of Shc1-EA protein. That recruitment results in an active B-galactosidase enzyme that is detected by addition of a chemiluminescent substrate. The human p75^NTR protein was also expressed as a co-receptor for NGF.
All reagents were purchased from DiscoverX, except for the receptor agonists (NGF, BDNF, NT3) which were purchased from Peprotech. Cells were expanded and frozen into cryovials, and stored in the vapor phase of liquid nitrogen, and thawed immediately before use. Thawed cells were added to a 384-well plate at 7500 cells/well, and allowed to incubate overnight. Compound at various concentrations was added the following morning and allowed to incubate on cells for 1 h. Then, NGF was added at a concentration sufficient to elicit ˜80% of a maximal response and allowed to incubate for 3 h at ambient temperature. DiscoverX PathHunter detection reagent was then added and the plate was further incubated for 1 h in the dark. The plate was then read via luminescence on the Perkin Elmer Envision.

T1 sequence (P04629 33-796): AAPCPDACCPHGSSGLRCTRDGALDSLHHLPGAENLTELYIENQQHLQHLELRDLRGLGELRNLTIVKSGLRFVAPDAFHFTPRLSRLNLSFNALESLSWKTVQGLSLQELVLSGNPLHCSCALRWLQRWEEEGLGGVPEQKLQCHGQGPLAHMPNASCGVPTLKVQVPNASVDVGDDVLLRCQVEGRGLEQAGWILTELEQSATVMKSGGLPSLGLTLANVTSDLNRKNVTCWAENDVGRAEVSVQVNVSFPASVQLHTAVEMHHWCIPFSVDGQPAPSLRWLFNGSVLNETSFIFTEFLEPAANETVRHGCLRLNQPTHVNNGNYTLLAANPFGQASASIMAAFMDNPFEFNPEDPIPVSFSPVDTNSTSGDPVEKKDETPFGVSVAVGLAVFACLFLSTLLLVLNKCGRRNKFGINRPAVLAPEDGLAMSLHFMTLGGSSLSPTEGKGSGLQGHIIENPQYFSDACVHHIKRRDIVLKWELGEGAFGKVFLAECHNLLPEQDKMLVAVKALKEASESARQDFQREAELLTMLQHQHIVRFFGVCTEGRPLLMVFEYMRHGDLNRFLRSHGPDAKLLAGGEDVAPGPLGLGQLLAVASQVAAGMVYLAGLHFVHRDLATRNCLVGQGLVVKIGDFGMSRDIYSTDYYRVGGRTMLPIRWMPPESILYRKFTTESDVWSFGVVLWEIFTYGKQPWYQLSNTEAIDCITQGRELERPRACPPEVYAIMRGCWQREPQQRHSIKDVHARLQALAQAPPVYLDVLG

Row | SMILES | IC50 [nM]
1 | C[C@@H](O)c1ccn2c(NC(=O)c3ccc(C(F)(F)F)c(-c4ccn(C)n4)c3)c(-c3ccccc3)nc2c1 (single isomer, unassigned) [Compound 42] | 0.79
2 | CC(O)c1ccc2nc(-c3ccccc3)c(NC(=O)c3ccc(C(F)(F)F)c(-c4ccn(C)n4)c3)n2c1 (single isomer, unassigned) [Compound 48, (R or S)-N-[6-(1-hydroxyethyl)-2-phenylimidazo[1,2-a]pyridin-3-yl]-3-(1-methyl-1H-pyrazol-3-yl)-4-(trifluoromethyl) benzamide] | 1.9
3 | Cn1ccc(-c2cc(C(=O)Nc3c(-c4ccccc4)nc4cc(C(O)CO)ccn34)ccc2C(F)(F)F)n1 (single isomer, unassigned) [Compound 49, (R or S)-N-[7-(1,2-dihydroxyethyl)-2-phenylimidazo[1,2-a]pyridin-3-yl]-3-(1-methyl-1H-pyrazol-3-yl)-4-(trifluoromethyl) benzamide] | 0.51
4 | CC(c1ccn2c(NC(=O)c3cc(-c4ccn(C)n4)c(C(F)(F)F)cc3F)c(-c3ccccc3)nc2c1)N(C)C (single isomer, unassigned) [Compound 51, (R or S)-N-{7-[1-(dimethylamino)ethyl]-2-phenylimidazo[1,2-a]pyridin-3-yl}-2-fluoro-5-(1-methyl-1H-pyrazol-3-yl)-4-(trifluoromethyl) benzamide] | 3.5
5 | Cn1ccc(-c2cc(C(=O)Nc3c(-c4ccccc4)nc4ccc(C(O)CO)cn34)ccc2C(F)(F)F)n1 (single isomer, unassigned) [Compound 52, (R or S)-N-[6-(1,2-dihydroxyethyl)-2-phenylimidazo[1,2-a]pyridin-3-yl]-3-(1-methyl-1H-pyrazol-3-yl)-4-(trifluoromethyl) benzamide] | 4.9
6 | CC(O)c1ccn2c(NC(=O)c3cc(-c4ccn(C)n4)c(C(F)(F)F)cc3F)c(-c3ccccc3)nc2c1 (single isomer, unassigned) [Compound 54, (R or S)-2-fluoro-N-[7-(1-hydroxyethyl)-2-phenylimidazo[1,2-a]pyridin-3-yl]-5-(1-methyl-1H-pyrazol-3-yl)-4-(trifluoromethyl) benzamide] | 0.4
7 | CC(O)c1ccn2c(NC(=O)c3cc(-c4ccn(C)n4)c(C(F)(F)F)cc3F)c(-c3ccccc3)nc2c1 (single isomer, unassigned) [Compound 55, (R or S)-2-fluoro-N-[7-(1-hydroxyethyl)-2-phenylimidazo[1,2-a]pyridin-3-yl]-5-(1-methyl-1H-pyrazol-3-yl)-4-(trifluoromethyl) benzamide] | 0.37
8 | CC(c1ccn2c(NC(=O)c3ccc(C(F)(F)F)c(-c4ccn(C)n4)c3)c(-c3ccccc3)nc2c1)N(C)C (single isomer, unassigned) [Compound 56, (R or S)-N-{7-[1-(dimethylamino)ethyl]-2-phenylimidazo[1,2-a]pyridin-3-yl}-3-(1-methyl-1H-pyrazol-3-yl)-4-(trifluoromethyl) benzamide] | 1
9 | CC(O)c1ccn2c(NC(=O)c3cc(-c4ncccn4)c(C(F)(F)F)cc3F)c(-c3ccccc3)nc2c1 (single isomer, unassigned) [Compound 57, (R or S)-2-fluoro-N-[7-(1-hydroxyethyl)-2-phenylimidazo[1,2-a]pyridin-3-yl]-5-pyrimidin-2-yl-4-(trifluoromethyl) benzamide] | 1.1
10 | CC(O)c1ccn2c(NC(=O)c3cc(-c4ncccn4)c(C(F)(F)F)cc3F)c(-c3ccccc3)nc2c1 (single isomer, unassigned) [Compound 58, (R or S)-2-fluoro-N-[7-(1-hydroxyethyl)-2-phenylimidazo[1,2-a]pyridin-3-yl]-5-pyrimidin-2-yl-4-(trifluoromethyl) benzamide] | 0.92
11 | Cc1coc(-c2cc(C(=O)Nc3c(-c4ccccc4)nc4cc(C(C)O)ccn34)ccc2C(F)(F)F)n1 (single isomer, unassigned) [Compound 61, (R or S)-N-[7-(1-hydroxyethyl)-2-phenylimidazo[1,2-a]pyridin-3-yl]-3-(4-methyl-1,3-oxazol-2-yl)-4-(trifluoromethyl) benzamide] | 2.4
12 | Cc1coc(-c2cc(C(=O)Nc3c(-c4ccccc4)nc4cc(C(C)O)ccn34)ccc2C(F)(F)F)n1 (single isomer, unassigned) [Compound 62, (R or S)-N-[7-(1-hydroxyethyl)-2-phenylimidazo[1,2-a]pyridin-3-yl]-3-(4-methyl-1,3-oxazol-2-yl)-4-(trifluoromethyl) benzamide] | 1.5
13 | Cn1ccc(-c2cc(C(=O)Nc3c(-c4ccccc4)nc4cc(C(O)C(F)(F)F)ccn34)ccc2C(F)(F)F)n1 (single isomer, unassigned) [Compound 63, (R or S)-3-(1-methyl-1H-pyrazol-3-yl)-N-[2-phenyl-7-(2,2,2-trifluoro-1-hydroxyethyl)imidazo[1,2-a]pyridin-3-yl]-4-(trifluoromethyl) benzamide] | 1.6
14 | Cn1ccc(-c2cc(C(=O)Nc3c(-c4ccccc4)nc4cc(C(O)C(F)(F)F)ccn34)ccc2C(F)(F)F)n1 (single isomer, unassigned) [Compound 64, (R or S)-3-(1-methyl-1H-pyrazol-3-yl)-N-[2-phenyl-7-(2,2,2-trifluoro-1-hydroxyethyl)imidazo[1,2-a]pyridin-3-yl]-4-(trifluoromethyl) benzamide] | 1.1
15 | Cn1ccc(-c2cc(C(=O)Nc3c(-c4ccccc4)nc4ccc(C(O)C(F)(F)F)cn34)ccc2C(F)(F)F)n1 (single isomer, unassigned) [Compound 65, (R or S)-3-(1-methyl-1H-pyrazol-3-yl)-N-[2-phenyl-6-(2,2,2-trifluoro-1-hydroxyethyl)imidazo[1,2-a]pyridin-3-yl]-4-(trifluoromethyl) benzamide] | 12
16 | Cn1ccc(-c2cc(C(=O)Nc3c(-c4ccccc4)nc4ccc(C(O)C(F)(F)F)cn34)ccc2C(F)(F)F)n1 (single isomer, unassigned) [Compound 66, (R or S)-3-(1-methyl-1H-pyrazol-3-yl)-N-[2-phenyl-6-(2,2,2-trifluoro-1-hydroxyethyl)imidazo[1,2-a]pyridin-3-yl]-4-(trifluoromethyl) benzamide] | 4.5
17 | CC(O)c1ccn2c(NC(=O)c3ccc(C(F)(F)F)c(-c4ncccn4)c3)c(-c3ccccc3)nc2c1 (single isomer, unassigned) [Compound 67, (R or S)-N-[7-(1-hydroxyethyl)-2-phenylimidazo[1,2-a]pyridin-3-yl]-3-pyrimidin-2-yl-4-(trifluoromethyl) benzamide] | 5.1
18 | CC(O)c1ccn2c(NC(=O)c3cc(-c4cc[nH]n4)c(C(F)(F)F)cc3F)c(-c3ccccc3)nc2c1 (single isomer, unassigned) [Compound 73, (R or S)-2-fluoro-N-[7-(1-hydroxyethyl)-2-phenylimidazo[1,2-a]pyridin-3-yl]-5-(1H-pyrazol-3-yl)-4-(trifluoromethyl) benzamide] | 1.4
19 | CC(O)c1ccn2c(NC(=O)c3cc(-c4cc[nH]n4)c(C(F)(F)F)cc3F)c(-c3ccccc3)nc2c1 (single isomer, unassigned) [Compound 74, (R or S)-2-fluoro-N-[7-(1-hydroxyethyl)-2-phenylimidazo[1,2-a]pyridin-3-yl]-5-(1H-pyrazol-3-yl)-4-(trifluoromethyl) benzamide] | 1.8
20 | CC(O)c1ccn2c(NC(=O)c3ccc(C(F)(F)F)c(-c4ccn(C(F)F)n4)c3)c(-c3ccccc3)nc2c1 (single isomer, unassigned) [Compound 77, (R or S)-3-[1-(difluoromethyl)-1H-pyrazol-3-yl]-N-[7-(1-hydroxyethyl)-2-phenylimidazo[1,2-a]pyridin-3-yl]-4-(trifluoromethyl) benzamide] | 4
21 | CC(O)c1ccn2c(NC(=O)c3ccc(C(F)(F)F)c(-c4ccn(C(F)F)n4)c3)c(-c3ccccc3)nc2c1 (single isomer, unassigned) [Compound 78, (R or S)-3-[1-(difluoromethyl)-1H-pyrazol-3-yl]-N-[7-(1-hydroxyethyl)-2-phenylimidazo[1,2-a]pyridin-3-yl]-4-(trifluoromethyl) benzamide] | 4.8
22 | CC(O)c1ccc2[nH]c(-c3ccccc3)c(NC(=O)c3cc(-c4ncccn4)c(C(F)(F)F)cc3F)c2c1 (single isomer, unassigned) [Compound 94, (R or S)-2-fluoro-N-[5-(1-hydroxyethyl)-2-phenyl-1H-indol-3-yl]-5-pyrimidin-2-yl-4-(trifluoromethyl) benzamide] | 6.5
23 | CC(O)c1ccc2[nH]c(-c3ccccc3)c(NC(=O)c3cc(-c4ncccn4)c(C(F)(F)F)cc3F)c2c1 (single isomer, unassigned) [Compound 95, (R or S)-2-fluoro-N-[5-(1-hydroxyethyl)-2-phenyl-1H-indol-3-yl]-5-pyrimidin-2-yl-4-(trifluoromethyl) benzamide] | 4.9
24 | CC(O)c1ccn2nc(-c3ccccc3)c(NC(=O)c3ccc(C(F)(F)F)c(-c4ccn(C)n4)c3)c2c1 (single isomer, unassigned) [Compound 97, (R or S)-N-[5-(1-hydroxyethyl)-2-phenylpyrazolo[1,5-a]pyridin-3-yl]-3-(1-methyl-1H-pyrazol-3-yl)-4-(trifluoromethyl) benzamide] | 1.9
25 | CC(O)c1ccn2nc(-c3ccccc3)c(NC(=O)c3ccc(C(F)(F)F)c(-c4ccn(C)n4)c3)c2c1 (single isomer, unassigned) [Compound 98, (R or S)-N-[5-(1-hydroxyethyl)-2-phenylpyrazolo[1,5-a]pyridin-3-yl]-3-(1-methyl-1H-pyrazol-3-yl)-4-(trifluoromethyl) benzamide] | 3.3
26 | CC(O)c1ccn2nc(-c3ccccc3)c(NC(=O)c3cc(-c4ccn(C)n4)c(C(F)(F)F)cc3F)c2c1 (single isomer, unassigned) [Compound 106, (R or S)-2-fluoro-N-[5-(1-hydroxyethyl)-2-phenylpyrazolo[1,5-a]pyridin-3-yl]-5-(1-methyl-1H-pyrazol-3-yl)-4-(trifluoromethyl) benzamide] | 1.7
